± gives the expanded uncertainty stated by the source.
Assay: Molar enthalpy of transition or fusion
Conditions: Crystal; DSC

In the case of [Ga] [gallium], the “Molar enthalpy of transition or fusion” value is reported as 1.39 ± 0.12 kcal/mol.

Assay: not given
Conditions: Crystal; DTA

Going from CCCCCCCCCCCCCC [tetradecane] to CCCCCCCCCCCCCCCC [hexadecane], the Normal melting temperature rises from 5.8 ± 1.1 °C to 18 ± 1.1 °C.

Going from O [water] to C1CCCCC1 [cyclohexane], the Normal melting temperature rises from 0.4 ± 1.1 °C to 7 ± 1.1 °C.

Going from CCCCCCCCCCCC [dodecane] to CCCCCCCCCCCCCCCCCCCC [eicosane], the Normal melting temperature rises from -9.4 ± 1.1 °C to 35.0 ± 1.1 °C.

Work on [Ga] [gallium] yielded a Normal melting temperature of 30.2 ± 1.1 °C.

From the NIST ThermoML archive (doi:10.1016/j.jct.2018.05.023)
